This note sets out measurements from US6432984B1, “Pyrazolecarboxylic acid derivatives, their preparation, pharmaceutical compositions containing them” (Sanofi-Synthelabo, priority 1999, dated 2002).

As usually defined, the Ki is the dissociation constant of the complex between target and ligand, obtained from inhibition or displacement. The ED50 is the midpoint of the dose-response relation. Read a high ED50 as weaker potency.

In assay [1] the target is T1, CB1 receptors present in the brain (Mus musculus, UniProt P47746).
T1 construct: from tissue; host or cells: mouse brain
T1 sequence (P47746 whole entry): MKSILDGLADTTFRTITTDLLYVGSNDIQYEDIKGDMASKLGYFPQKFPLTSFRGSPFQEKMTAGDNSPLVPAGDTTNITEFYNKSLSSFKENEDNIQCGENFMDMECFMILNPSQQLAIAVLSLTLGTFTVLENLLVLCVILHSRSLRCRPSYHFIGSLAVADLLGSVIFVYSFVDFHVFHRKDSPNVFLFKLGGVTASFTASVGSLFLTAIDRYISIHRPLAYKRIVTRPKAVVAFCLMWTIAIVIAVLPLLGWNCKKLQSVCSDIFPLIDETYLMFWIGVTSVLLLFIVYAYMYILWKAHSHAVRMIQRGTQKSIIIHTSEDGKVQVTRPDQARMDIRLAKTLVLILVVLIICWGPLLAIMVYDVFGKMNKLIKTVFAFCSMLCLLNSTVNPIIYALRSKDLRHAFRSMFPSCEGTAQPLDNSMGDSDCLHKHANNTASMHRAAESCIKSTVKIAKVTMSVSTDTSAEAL
The assay can be described thus: duration of occupation of the CB1 receptors present in the brain, in vivo after oral administration. Particulars: mice, oral 10 mg/kg; for % of occupation of the receptors, 1 hour: 1 hour after administration; for % of occupation of the receptors, 24 hours: 24 hours after administration. The source says: Moreover, the duration of occupation of the CB1 receptors present in the brain by the 3 compounds below was compared: […]

For assay [2], the target named is T2, CB1 cannabinoid receptors (Homo sapiens, UniProt P21554). Nature of the assay: in vitro affinity for CB1 cannabinoid receptors (conditions of Devane et al.).
T2 sequence (P21554 whole entry): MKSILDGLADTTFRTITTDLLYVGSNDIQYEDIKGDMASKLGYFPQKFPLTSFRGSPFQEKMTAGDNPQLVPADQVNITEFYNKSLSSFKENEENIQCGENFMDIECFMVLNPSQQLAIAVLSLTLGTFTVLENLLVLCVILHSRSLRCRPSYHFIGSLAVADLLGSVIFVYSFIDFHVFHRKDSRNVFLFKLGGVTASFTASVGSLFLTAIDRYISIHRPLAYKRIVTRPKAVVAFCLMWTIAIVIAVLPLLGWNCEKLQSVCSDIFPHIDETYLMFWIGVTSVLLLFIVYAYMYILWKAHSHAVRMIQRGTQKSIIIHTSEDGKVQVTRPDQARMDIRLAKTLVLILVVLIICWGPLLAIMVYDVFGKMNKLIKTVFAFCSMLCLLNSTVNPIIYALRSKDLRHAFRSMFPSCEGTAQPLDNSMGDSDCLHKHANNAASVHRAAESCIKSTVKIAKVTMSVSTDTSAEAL
Assay [3] concerns hypothermia induced with a cannabinoid receptor agonist (WIN 55212-2). Nature of the assay: antagonism of the hypothermia induced with WIN 55212-2. The format is in vivo. Particulars: mice; for ED50: Mus musculus, oral, WIN 55212-2 induced hypothermia; for Duration of action, 24 h, oral dose 1 mg/kg: oral dose 1 mg/kg. From the text: In this test, the activity and the duration of action of 3 compounds were compared.

Assay [4] has as its target T2, CB1 cannabinoid receptors. Nature of the assay: models of adenylate-cyclase inhibition. The format is biochemical. Particulars: as described in Rinaldi-Carmona et al. 1996. From the text:
More particularly, the compound of the present invention, in its native form or in the form of one of its pharmaceutically acceptable salts, is a powerful and selective antagonist of the CB1 cannabinoid receptors.

Consider `Cc1c(C(=O)NN2CCCCC2)nn(-c2ccc(Cl)cc2Cl)c1-c1ccc(Br)cc1` [Compound A, reference compound], for which, in assay [1], the “% of occupation of the receptors, 1 hour” value was 89% and the “% of occupation of the receptors, 24 hours” value was determined as 4%. In assay [2], this compound gave a Ki of 8 nM. Also, it took a dose of 0.3 mg/kg to reach the 50% effect level in assay [3] (ED50). For the same compound, in assay [3] (24 h after administration), the “Duration of action, 24 h, oral dose 1 mg/kg” value is listed as “not active”. Besides, the “Duration of action, 24 h, oral dose 10 mg/kg” value in assay [3] (oral dose 10 mg/kg, 24 h after administration) is reported as “active”.

Take `CCc1c(C(=O)NN2CCCCC2)nn(-c2ccc(Cl)cc2Cl)c1-c1ccc(Br)cc1` [Compound of formula (I), N-piperidino-5-(4-bromophenyl)-1-(2,4-dichlorophenyl)-4-ethylpyrazole-3-carboxamide]: in assay [4], the “antagonist nature in models of adenylate-cyclase inhibition” value was “antagonist”. In addition, the “% of occupation of the receptors, 1 hour” value in assay [1] amounted to 82%. The “% of occupation of the receptors, 24 hours” value in assay [1] (10 mg/kg) worked out at 44%; in assay [1] (listed as compound of formula (I), 10 mg/kg), 44%. The same compound yielded a Ki in assay [2] of 5.4 nM. Further, in assay [3], the median effective dose (ED50) was 0.3 mg/kg. The “Duration of action, 24 h, oral dose 1 mg/kg” value in assay [3] (24 h after administration) is on record as “active”.
